Results taken from patent US20050180971A1, “Cancer therapy” (priority 2002, published 2005).
Several values for one entry are separate records, joined by “and”; a condition that tells them apart may be missing. Identical values can stand only once.

Tested on: AE 17 cells
Assay: Murine mesothelioma model: subcutaneous AE 17 tumor challenge, tumor area by callipers
Format: in vivo, C57/B16 mice
From the text: Malignant mesothelioma in humans is an asbestos induced, incurable tumor that has a particularly poor prognosis. Average time from diagnosis to death being only eight months (Musk and Woodward, 1982). A murine model was developed by researchers in the Department of Medicine at the University of Western Australia to further the development of suitable interventions (Davies et al., 1992).
Day 0 was defined as the day of tumor cell inoculation with 1×10^6 AE 17 cells subcutaneously. The AE 17 tumor cell line was derived from C57/B16 mice and inoculated back into the same strain. This point will be referred to as a tumor challenge henceforth. Three groups of 5 mice were all challenged in this way. Subsequently the first of the groups was given a single ip dose of vinblastine (Vb) at 6 mg/kg body weight exactly 14 days post tumor challenge (Vb 19/11/01 group). The second group of 5 mice were similarly treated the next day; 15 days post tumor challenge (Vb 20/11/01). The third group received no Vb treatment (No treatment/control group).
Tumor measurements were taken from Day 14 onwards with callipers (2 diameters at right angles to each other in mm's). These two diameters are then multiplied together to give a mm^2 value that is known from past experience to correlate well with both tumor volume and tumor mass.

[1] = single ip Vb 6 mg/kg on day 14 post tumor challenge, measured day 14 (19-Nov)
[2] = single ip Vb 6 mg/kg on day 14 post tumor challenge, measured day 15 (20-Nov)
[3] = single ip Vb 6 mg/kg on day 14 post tumor challenge, measured day 18 (23-Nov)
[4] = single ip Vb 6 mg/kg on day 14 post tumor challenge, measured day 21 (26-Nov)
[5] = single ip Vb 6 mg/kg on day 14 post tumor challenge, measured day 24 (29-Nov)
[6] = single ip Vb 6 mg/kg on day 14 post tumor challenge, measured day 25 (30-Nov)
[7] = single ip Vb 6 mg/kg on day 14 post tumor challenge, measured day 28 (3-Dec)
[8] = single ip Vb 6 mg/kg on day 14 post tumor challenge, measured day 30 (5-Dec)
[9] = single ip Vb 6 mg/kg on day 15 post tumor challenge, measured day 14 (19-Nov), before treatment
[10] = single ip Vb 6 mg/kg on day 15 post tumor challenge, measured day 15 (20-Nov)
[11] = single ip Vb 6 mg/kg on day 15 post tumor challenge, measured day 18 (23-Nov)
[12] = single ip Vb 6 mg/kg on day 15 post tumor challenge, measured day 21 (26-Nov)
[13] = single ip Vb 6 mg/kg on day 15 post tumor challenge, measured day 24 (29-Nov)
[14] = single ip Vb 6 mg/kg on day 15 post tumor challenge, measured day 25 (30-Nov)
[15] = single ip Vb 6 mg/kg on day 15 post tumor challenge, measured day 28 (3-Dec)
[16] = single ip Vb 6 mg/kg on day 15 post tumor challenge, measured day 30 (5-Dec)

Q: Which results are given for `CC[C@]1(O)C[C@@H]2CN(CCc3c([nH]c4ccccc34)[C@@](C(=O)OC)(c3cc4c(cc3OC)N(C)[C@H]3[C@@](O)(C(=O)OC)[C@H](OC(C)=O)[C@]5(CC)C=CCN6CC[C@]43[C@@H]65)C2)C1` [Vb, vinblastine]?
A: mice with significant tumor development (Vb treatment day 15 post challenge): 4/5; protection from tumor development (single Vb treatment day 14 post challenge): heavily protected from tumor development; effectiveness (single Vb treatment day 14 post challenge, 5 mice): 80%; Tumor area (2 diameters multiplied), individual animal (single ip Vb 6 mg/kg on day 14 post tumor challenge, measured (7-Dec)): 0 mm^2 (4×) and 70 mm^2; Tumor area (2 diameters multiplied), individual animal [1]: 4 mm^2 (4×) and 0.5 mm^2; Tumor area, group mean [1]: 3.3 mm^2; Tumor area (2 diameters multiplied), individual animal [2]: 0.5 mm^2 (3×) and 0 mm^2 (2×); Tumor area, group mean [2]: 0.3 mm^2; Tumor area (2 diameters multiplied), individual animal [3]: 0 mm^2 (2×) and 2 mm^2 and 1 mm^2 and 0.5 mm^2; Tumor area, group mean [3]: 0.7 mm^2; Tumor area (2 diameters multiplied), individual animal [4]: 0.5 mm^2 (2×) and 1 mm^2 and 0 mm^2 (2×); Tumor area, group mean [4]: 0.4 mm^2; Tumor area (2 diameters multiplied), individual animal [5]: 0 mm^2 (3×) and 6 mm^2 and 4 mm^2; Tumor area, group mean [5]: 2 mm^2; Tumor area (2 diameters multiplied), individual animal [6]: 0 mm^2 (3×) and 1 mm^2 and 0.5 mm^2; Tumor area, group mean [6]: 0.3 mm^2; Tumor area (2 diameters multiplied), individual animal [7]: 0 mm^2 (3×) and 0.5 mm^2 and 40 mm^2; Tumor area, group mean [7]: 8.1 mm^2; Tumor area (2 diameters multiplied), individual animal [8]: 0 mm^2 (4×) and 70 mm^2; Tumor area, group mean [8]: 14 mm^2; Tumor area, group mean (single ip Vb 6 mg/kg on day 14 post tumor challenge, measured day 32 (7-Dec)): 14 mm^2; Tumor area (2 diameters multiplied), individual animal (single ip Vb 6 mg/kg on day 15 post tumor challenge, measured (7-Dec)): 81 mm^2 and 0.5 mm^2 and 90 mm^2 (2×); Tumor area (2 diameters multiplied), individual animal [9]: 0.5 mm^2 (3×) and 4 mm^2 and 9 mm^2; Tumor area, group mean [9]: 2.9 mm^2; Tumor area (2 diameters multiplied), individual animal [10]: 1 mm^2 and 0.5 mm^2 (3×) and 0 mm^2; Tumor area, group mean [10]: 0.5 mm^2; Tumor area (2 diameters multiplied), individual animal [11]: 4 mm^2 and 0.5 mm^2 (2×) and 0 mm^2 (2×); Tumor area, group mean [11]: 1 mm^2; Tumor area (2 diameters multiplied), individual animal [12]: 9 mm^2 and 0.5 mm^2 (3×) and 8 mm^2; Tumor area, group mean [12]: 3.7 mm^2; Tumor area (2 diameters multiplied), individual animal [13]: 16 mm^2 and 0.5 mm^2 and 25 mm^2 and 12 mm^2; Tumor area, group mean [13]: 13.4 mm^2; Tumor area (2 diameters multiplied), individual animal [14]: 20 mm^2 and 0.5 mm^2 and 30 mm^2 and 25 mm^2; Tumor area, group mean [14]: 18.9 mm^2; Tumor area (2 diameters multiplied), individual animal [15]: 42 mm^2 and 0.5 mm^2 and 56 mm^2 and 90 mm^2; Tumor area, group mean [15]: 47.1 mm^2; Tumor area (2 diameters multiplied), individual animal [16]: 56 mm^2 and 0.5 mm^2 and 90 mm^2 (2×); Tumor area, group mean [16]: 59.1 mm^2; Tumor area, group mean (single ip Vb 6 mg/kg on day 15 post tumor challenge, measured day 32 (7-Dec)): 65.4 mm^2
